Target: erythrocyte KCa3.1 channels (Homo sapiens (Human), UniProt O15554)
Assay: Erythrocyte KCa3.1 assay
Type: cell-based
Details: human erythrocytes, A23187-activated, 37° C.; read-out: RBC K (in vitro) Human IC50
Method: Human blood was drawn from healthy human volunteers in a standard heparinized blood sampling vial (Vacutainer, Li/heparin, BD Bioscience, Plymouth, UK). The erythrocytes were packed by centrifugation, and the plasma and buffy coat were removed by aspiration. Erythrocytes were washed three times in the experimental salt solution and then stored at 0° C. until use. Blood samples from NMRI mice or from Wistar rats were treated similarly. The methodological principle is outlined in Macey et al. (1978) and further described in Strøbæk et al. (2013). Activation of the erythrocyte KCa3.1 channels were obtained by addition of the Ca^2+ ionophore A23187, which causes synchronized hyperpolarization, which is reported as a CCCP-mediated shift in the unbuffered extracellular pH of the erythrocyte suspension. Standard procedure: 3 mL unbuffered experimental salt solution (in mM: 2 KCl, 154 NaCl, 0.05 CaCl2) was heated to 37° C. with stirring. Packed erythrocytes were added (50 μL, final cytocrit 1.5%), and the extracellular pH (pHo) followed with a glass/calomel (pHG200-8/REF200, Radiometer, Denmark) electrode pair. CCCP (3 μL, final concentration 20 μM) was added followed by varying concentrations of test compounds (DMSO concentration constant). After pH stabilization at ˜7.2, A23187 (3 μL, final concentration 0.33 μM) was added to initiate the experiment. After the peak hyperpolarization was attained, the intracellular pH (pHi constant during the experiment) was found by haemolysing the erythrocytes via addition of 100 μL of Triton-X100.
The erythrocyte membrane potential, Vm, was calculated according to: Vm=−61.5 mV×(pHo−pHi) and the fractional remaining Ca^2+-activated K^+-conductance at the concentration C of blocker, fGK(C), was calculated from
[formula] where the K^+ equilibrium potential EK=−107 mV, the Cl^− equilibrium potential ECl=−12 mV and the Vm(0) and Vm(C) are the peak hyperpolarizations in the control and in the presence of a concentration of C of blocker respectively.
IC50 values for compounds were calculated from a plot of fGK(C) versus C by a fit to the Hill equation, using a custom program written in the IGOR-Pro software (WaveMetrics, Lake Oswego, OR, USA). All IC50-values are reported in μM.

CCOC(=O)N(C[C@H]1CCCN1)C1(c2ccc(F)c(C(F)(F)F)c2)CC1 [[38], Ethyl (R)-(1-(4-fluoro-3-(trifluoromethyl)phenyl)cyclopropyl)(pyrrolidin-2-ylmethyl)carbamate] showed an IC50 of 120 nM.
With COC(=O)N(C[C@@H]1CCCN1)C1(c2ccc(F)c(OC(F)(F)F)c2)CC1 [[28], Methyl (S)-(1-(4-fluoro-3-(trifluoromethoxy)phenyl)cyclopropyl)(pyrrolidin-2-ylmethyl)carbamate] the IC50 was 87 nM.
In the case of CC(C)(O)CN(CC1CCN1)C1(c2ccc(F)c(C(F)(F)F)c2)CC1 (stereo not shown) [[14], 1-((azetidin-2-ylmethyl)(1-(4-fluoro-3-(trifluoromethyl)phenyl)cyclopropyl)amino)-2-methyl propan-2-ol], the IC50 is reported as 250 nM.
With COC(=O)N(C[C@H]1CCCN1)C1(c2ccc(F)c(C(F)(F)F)c2)CC1 [[22], Methyl (R)-(1-(4-fluoro-3-(trifluoromethyl)phenyl)cyclopropyl)(pyrrolidin-2-ylmethyl)carbamate] the IC50 was 210 nM.
For CC(C)(N)CNC1(c2ccc(F)c(C(F)(F)F)c2)CC1 [[25], N1-(1-(4-fluoro-3-(trifluoromethyl)phenyl)cyclopropyl)-2-methylpropane-1,2-diamine], the IC50 was 180 nM.
In the case of CCOC(=O)N(C[C@@H]1CCCN1)C1(c2ccc(F)c(C(F)(F)F)c2)CC1 [[34], Ethyl (S)-(1-(4-fluoro-3-(trifluoromethyl)phenyl)cyclopropyl)(pyrrolidin-2-ylmethyl)carbamate], the IC50 is reported as 52 nM.
For COC(=O)N(CC(C)(C)N)C1(c2ccc(F)c(OC(F)(F)F)c2)CC1 [[20], Methyl (2-amino-2-methylpropyl)(1-(4-fluoro-3-(trifluoromethoxy)phenyl)cyclopropyl)carbamate], the IC50 was 92 nM.
With CC(C)(N)CN(C(=O)C1CC1)C1(c2ccc(F)c(C(F)(F)F)c2)CC1 [[9], N-(2-amino-2-methylpropyl)-N-(1-(4-fluoro-3-(trifluoromethyl)phenyl)cyclopropyl)cyclopropanecarboxamide] the IC50 was 350 nM.
O=C(OC1CC1)N(C[C@@H]1CCCN1)C1(c2ccc(F)c(C(F)(F)F)c2)CC1 [[45], Cyclopropyl (S)-(1-(4-fluoro-3-(trifluoromethyl)phenyl)cyclopropyl)(pyrrolidin-2-ylmethyl)carbamate] was tested, and the IC50 was 180 nM.
CS(=O)(=O)N(C[C@H]1CCCN1)C1(c2ccc(F)c(C(F)(F)F)c2)CC1 [[41], (R)—N-(1-(4-fluoro-3-(trifluoromethyl)phenyl)cyclopropyl)-N-(pyrrolidin-2-ylmethyl) methane sulfonamide] was tested, and the IC50 was 380 nM.
For CS(=O)(=O)N(CC1(N)CC1)C1(c2ccc(F)c(C(F)(F)F)c2)CC1 [[49], N-((1-aminocyclopropyl)methyl)-N-(1-(4-fluoro-3-(trifluoromethyl)-phenyl)cyclopropyl)methanesulfonamide], the IC50 was 390 nM.
O=C(OCC1CC1)N(C[C@@H]1CCCN1)C1(c2ccc(F)c(C(F)(F)F)c2)CC1 [[48], Cyclopropylmethyl (S)-(1-(4-fluoro-3-(trifluoromethyl)phenyl)cyclopropyl)(pyrrolidin-2-ylmethyl)carbamate] was tested, and the IC50 was 230 nM.
COC(=O)N(C[C@H]1COCCN1C)C1(c2ccc(F)c(C(F)(F)F)c2)CC1 [[43], Methyl (S)-(1-(4-fluoro-3-(trifluoromethyl)phenyl)cyclopropyl)((4-methylmorpholin-3-yl)methyl)carbamate] showed an IC50 of 290 nM.
With CC(C)(N)CN(C1CC1)C1(c2cccc(C(F)(F)F)c2)CC1 [[10], N1-cyclopropyl-2-methyl-N1-(1-(3-(trifluoromethyl)phenyl)cyclopropyl)propane-1,2-diamine] the IC50 was 24 nM.
Compound COC(=O)N(C[C@@H]1CCCN1)C1(c2ccc(F)c(C(F)(F)F)c2)CC1 [[23], Methyl (S)-(1-(4-fluoro-3-(trifluoromethyl)phenyl)cyclopropyl)(pyrrolidin-2-ylmethyl)carbamate] has an IC50 of 120 nM.
For CCOC(=O)N(CC(C)(C)N)C1(c2ccc(F)c(C(F)(F)F)c2)CC1 [[19], Ethyl (2-amino-2-methylpropyl)(1-(4-fluoro-3-(trifluoromethyl)phenyl)cyclopropyl)carbamate], the IC50 was 47 nM.

— patent US12006289B2, “Potassium channel inhibitors” (Saniona A/S, priority 2019, dated 2024)
